Measured values as given in PubChem BioAssay AID1963425 (Molecular Pharmacology Branch, DTP, NCI, 2024).

Test system: 323965-272-R-J2-PDC complex spheroid growth, % test/control
Assay: Anticancer human tumor 323965-272-R-J2-PDC patient-derived pancreatic carcinoma cell line growth inhibition [Asc]
Conditions: for IC50: curve of first compound; for viability, T/C: stronger effect = lower value; active means viability on the fitted dose curve at most 10% of control; inactive means the rest
Method in brief: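 Tumor cells were grown as multicellular spheroids with stromal HUVEC and mesenchymal stem cells and treated singly or in combination. Concentrations fell in half-log steps from the clinical Cmax, or from 10 microM where none was known.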

[1] = second compound 0.00316 µM, first compound 0.0316 µM
[2] = second compound 0.00316 µM, first compound 0.1 µM
[3] = second compound 0.01 µM, first compound 0.0316 µM
[4] = second compound 0.01 µM, first compound 0.1 µM
[5] = second compound 0.0316 µM, first compound 0.0316 µM
[6] = second compound 0.0316 µM, first compound 0.1 µM
[7] = second compound 0.1 µM, first compound 0.0316 µM
[8] = second compound 0.1 µM, first compound 0.1 µM
[9] = second compound 0.316 µM, first compound 0.0316 µM
[10] = second compound 0.316 µM, first compound 0.1 µM
[11] = second compound 1 µM, first compound 0.0316 µM
[12] = second compound 1 µM, first compound 0.1 µM
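Further: compound exposure lasted 7 days starting three days after spheroid seeding.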
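Wherever viability, T/C is given: 100% = DMSO vehicle control wells with viability set relative to vehicle.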

Cc1nc(N2CCC3(CC2)COC(C)C3N)c(CO)nc1Sc1ccnc(N)c1Cl (stereo unspecified) + CCN1C(C(=O)NC23CCC(C(=O)O)(CC2)CC3)C(c2cccc(Cl)c2F)C2(C(=O)Nc3cc(Cl)ccc32)C12CCCCC2
1700 nM: IC50 (second compound 0.3 µM)
1640 nM: IC50 (second compound 0.949 µM)
929 nM: IC50 (second compound 3 µM)
> 3000 nM: IC50 (second compound 0.03 µM) | IC50 (second compound 0.0949 µM)
1560 nM: IC50 (second compound 0.00949 µM)
inactive: viability, T/C (second compound 0.00949 µM, first compound 0.00949 µM) 107% | viability, T/C (second compound 0.00949 µM, first compound 0.03 µM) 89% | viability, T/C (second compound 0.00949 µM, first compound 0.0949 µM) 85.4% | viability, T/C (second compound 0.00949 µM, first compound 0.3 µM) 62.7% | viability, T/C (second compound 0.00949 µM, first compound 0.949 µM) 57.3% | viability, T/C (second compound 0.00949 µM, first compound 3 µM) 42.9% | viability, T/C (second compound 0.03 µM, first compound 0.00949 µM) 104% | viability, T/C (second compound 0.03 µM, first compound 0.03 µM) 91.8% | viability, T/C (second compound 0.03 µM, first compound 0.0949 µM) 80.4% | viability, T/C (second compound 0.03 µM, first compound 0.3 µM) 67.8% | viability, T/C (second compound 0.03 µM, first compound 0.949 µM) 59% | viability, T/C (second compound 0.03 µM, first compound 3 µM) 50.4% | viability, T/C (second compound 0.0949 µM, first compound 0.00949 µM) 109% | viability, T/C (second compound 0.0949 µM, first compound 0.03 µM) 84.9% | viability, T/C (second compound 0.0949 µM, first compound 0.0949 µM) 86.1% | viability, T/C (second compound 0.0949 µM, first compound 0.3 µM) 65.3% | viability, T/C (second compound 0.0949 µM, first compound 0.949 µM) 61.7% | viability, T/C (second compound 0.0949 µM, first compound 3 µM) 51.2% | viability, T/C (second compound 0.3 µM, first compound 0.00949 µM) 102% | viability, T/C (second compound 0.3 µM, first compound 0.03 µM) 86.3% | viability, T/C (second compound 0.3 µM, first compound 0.0949 µM) 82.7% | viability, T/C (second compound 0.3 µM, first compound 0.3 µM) 68.6% | viability, T/C (second compound 0.3 µM, first compound 0.949 µM) 54.2% | viability, T/C (second compound 0.3 µM, first compound 3 µM) 44.6% | viability, T/C (second compound 0.949 µM, first compound 0.00949 µM) 105% | viability, T/C (second compound 0.949 µM, first compound 0.03 µM) 95.8% | viability, T/C (second compound 0.949 µM, first compound 0.0949 µM) 88.3% | viability, T/C (second compound 0.949 µM, first compound 0.3 µM) 63.6% | viability, T/C (second compound 0.949 µM, first compound 0.949 µM) 57.8% | viability, T/C (second compound 0.949 µM, first compound 3 µM) 44.2% | viability, T/C (second compound 3 µM, first compound 0.00949 µM) 91.2% | viability, T/C (second compound 3 µM, first compound 0.03 µM) 83.3% | viability, T/C (second compound 3 µM, first compound 0.0949 µM) 71.7% | viability, T/C (second compound 3 µM, first compound 0.3 µM) 60% | viability, T/C (second compound 3 µM, first compound 0.949 µM) 53.6% | viability, T/C (second compound 3 µM, first compound 3 µM) 35.4%

Cn1ncnc1[C@H]1c2n[nH]c(=O)c3cc(F)cc(c23)N[C@@H]1c1ccc(F)cc1 + CNC(C)C(=O)NC1CN(S(=O)(=O)c2cccc(S(=O)(=O)N3CCC4CCC(C(=O)NC(c5ccccc5)c5ccccc5)N4C(=O)C(NC(=O)C(C)NC)C3)c2)CCC2CCC(C(=O)NC(c3ccccc3)c3ccccc3)N2C1=O
< 0.316 nM: IC50 (second compound 0.00316 µM)
> 100 nM: IC50 (second compound 0.01 µM) | IC50 (second compound 0.0316 µM) | IC50 (second compound 0.1 µM) | IC50 (second compound 0.316 µM) | IC50 (second compound 1 µM)
inactive: viability, T/C (second compound 0.00316 µM, first compound 0.000316 µM) 49.4% | viability, T/C (second compound 0.00316 µM, first compound 0.001 µM) 49.2% | viability, T/C (second compound 0.00316 µM, first compound 0.00316 µM) 46.2% | viability, T/C (second compound 0.00316 µM, first compound 0.01 µM) 47.6% | viability, T/C [1] 49.5% | viability, T/C [2] 47.7% | viability, T/C (second compound 0.01 µM, first compound 0.000316 µM) 119% | viability, T/C (second compound 0.01 µM, first compound 0.001 µM) 92.3% | viability, T/C (second compound 0.01 µM, first compound 0.00316 µM) 97.3% | viability, T/C (second compound 0.01 µM, first compound 0.01 µM) 90.1% | viability, T/C [3] 87.8% | viability, T/C [4] 85.5% | viability, T/C (second compound 0.0316 µM, first compound 0.000316 µM) 107% | viability, T/C (second compound 0.0316 µM, first compound 0.001 µM) 93.8% | viability, T/C (second compound 0.0316 µM, first compound 0.00316 µM) 87.6% | viability, T/C (second compound 0.0316 µM, first compound 0.01 µM) 105% | viability, T/C [5] 92% | viability, T/C [6] 91% | viability, T/C (second compound 0.1 µM, first compound 0.000316 µM) 94.3% | viability, T/C (second compound 0.1 µM, first compound 0.001 µM) 106% | viability, T/C (second compound 0.1 µM, first compound 0.00316 µM) 112% | viability, T/C (second compound 0.1 µM, first compound 0.01 µM) 97.6% | viability, T/C [7] 84% | viability, T/C [8] 91.7% | viability, T/C (second compound 0.316 µM, first compound 0.000316 µM) 103% | viability, T/C (second compound 0.316 µM, first compound 0.001 µM) 89.8% | viability, T/C (second compound 0.316 µM, first compound 0.00316 µM) 101% | viability, T/C (second compound 0.316 µM, first compound 0.01 µM) 92.7% | viability, T/C [9] 88.2% | viability, T/C [10] 89% | viability, T/C (second compound 1 µM, first compound 0.000316 µM) 87.5% | viability, T/C (second compound 1 µM, first compound 0.001 µM) 90.7% | viability, T/C (second compound 1 µM, first compound 0.00316 µM) 94.4% | viability, T/C (second compound 1 µM, first compound 0.01 µM) 83.7% | viability, T/C [11] 89.7% | viability, T/C [12] 86.3%

O=C(c1cc(Cc2n[nH]c(=O)c3ccccc23)ccc1F)N1CCN(C(=O)C2CC2)CC1 + CNC(C)C(=O)NC1CN(S(=O)(=O)c2cccc(S(=O)(=O)N3CCC4CCC(C(=O)NC(c5ccccc5)c5ccccc5)N4C(=O)C(NC(=O)C(C)NC)C3)c2)CCC2CCC(C(=O)NC(c3ccccc3)c3ccccc3)N2C1=O
inactive: viability, T/C [1] 43.1% | viability, T/C [2] 45.3% | viability, T/C (second compound 0.00316 µM, first compound 0.316 µM) 41% | viability, T/C (second compound 0.00316 µM, first compound 1 µM) 47.4% | viability, T/C (second compound 0.00316 µM, first compound 3.16 µM) 44.6% | viability, T/C (second compound 0.00316 µM, first compound 10 µM) 36.6% | viability, T/C [3] 99.4% | viability, T/C [4] 101% | viability, T/C (second compound 0.01 µM, first compound 0.316 µM) 97.5% | viability, T/C (second compound 0.01 µM, first compound 1 µM) 94.5% | viability, T/C (second compound 0.01 µM, first compound 3.16 µM) 75.9% | viability, T/C (second compound 0.01 µM, first compound 10 µM) 72% | viability, T/C [5] 101% | viability, T/C [6] 99.4% | viability, T/C (second compound 0.0316 µM, first compound 0.316 µM) 100% | viability, T/C (second compound 0.0316 µM, first compound 1 µM) 105% | viability, T/C (second compound 0.0316 µM, first compound 3.16 µM) 102% | viability, T/C (second compound 0.0316 µM, first compound 10 µM) 70.7% | viability, T/C [7] 92.6% | viability, T/C [8] 91.9% | viability, T/C (second compound 0.1 µM, first compound 0.316 µM) 89.7% | viability, T/C (second compound 0.1 µM, first compound 1 µM) 99.3% | viability, T/C (second compound 0.1 µM, first compound 3.16 µM) 94.5% | viability, T/C (second compound 0.1 µM, first compound 10 µM) 71.9% | viability, T/C [9] 93.4% | viability, T/C [10] 89.1% | viability, T/C (second compound 0.316 µM, first compound 0.316 µM) 97.9% | viability, T/C (second compound 0.316 µM, first compound 1 µM) 89.7% | viability, T/C (second compound 0.316 µM, first compound 3.16 µM) 93.7% | viability, T/C (second compound 0.316 µM, first compound 10 µM) 80% | viability, T/C [11] 94.5% | viability, T/C [12] 87% | viability, T/C (second compound 1 µM, first compound 0.316 µM) 83.3% | viability, T/C (second compound 1 µM, first compound 1 µM) 93.1% | viability, T/C (second compound 1 µM, first compound 3.16 µM) 89.2% | viability, T/C (second compound 1 µM, first compound 10 µM) 68.3%
< 31.6 nM: IC50 (second compound 0.00316 µM)
> 10000 nM: IC50 (second compound 0.01 µM) | IC50 (second compound 0.0316 µM) | IC50 (second compound 0.1 µM) | IC50 (second compound 0.316 µM) | IC50 (second compound 1 µM)
